Literature values as cited in patent US12202853B2, “Epoxide polyene amphoteric macrolide and process for purifying natamycin” (DSM IP ASSETS B.V., priority 2018, dated 2025).
Read-outs that look alike come from different tables or passages of the source.

## Natamycin
Neutral pH
  solubility of natamycin in water: around 40 mg/L
Neutral pH values, also printed as 40 ppm
  solubility of natamycin in water: around 0.04 g/L
